According to paper PMC8245786, “Comparative Studies on Multi-Component Pharmacokinetics of Polygonum multiflorum Thunb Extract After Oral Administration in Different Rat Models” (Frontiers in Pharmacology, 2021):
Read-outs that look alike come from different tables or passages of the source.

Assays:
[1] = Pharmacokinetics of AE-PM components and their phase II metabolites in rat plasma after single oral administration (UHPLC-MS/MS, with and without sulfatase hydrolysis); conditions: for t1/2z / AUC(0-inf) / CL/F / Cmax / MRT inf / Tmax / Vd/F / half-life / Conversion into phase II metabolites: plasma; for CL/F: CLz/F; for MRT inf: MRT (0-∞); for Vd/F: Vz/F; for half-life: t1/2z; for Conversion into phase II metabolites: rats
Protocol: (§1) To explore the pharmacokinetic properties of PM following intragastric administration in rats, a rapid and sensitive method involving the use of UHPLC-MS/MS (Agilent 6460 series, Agilent Technologies, Santa Clara, CA, United States) was developed and validated for the simultaneous quantification of nine active components in rat plasma. The quantification was conducted in ESI negative ionization mode, and mass spectrometry conditions were set up as follows: capillary voltage of 3500 V; gas flow at 12 L/min; nebulizer of 40 psi; the gas temperature of 350°C; and delta EMV (−) of 400. A 10 µl extraction sample was injected into the column (Agilent SB-C18 column, 2.1 mm × 50 mm, 1.8 mm) and eluted at 0.4 ml/min with a gradient elution of water (with 0.1% v/v formic acid) (A) and acetonitrile (B) (0–1.5 min, 20–30% B; 1.5–3.5 min, 30–50% B; 3.five to four min, 50–55%B; 4–6.5 min, 55–85% B; 6.5–6.6 min, 85–20% B and re-equilibration for 3 min).
(§2) A 50 µl aliquot of blood plasma sample was placed in a centrifuge tube with 50 µl of puerarin (internal standard, IS) solution (1,000 ng/ml), followed by 150 µl methanol, which was mixed for 5 min. Then, the mixture was centrifuged for 10 min at 15,000 rpm (4°C), the supernatant was transferred to a clean centrifuge tube and dried with nitrogen gas at room temperature. The residue was resuspended in 100 µl of methanol, then centrifuged at 15,000 rpm (4°C, 10 min), and 10 µl of the supernatant was analyzed by UHPLC-MS/MS.
(§3) Additional plasma samples (50 µl) were enzymatically hydrolyzed with 50 µl of enzyme solution (65.86 mg of sulfatase, dissolved in 2 ml of sodium acetate buffer, pH 5.0) for phase II metabolite quantification, in accordance with our previous study ([Ding et al., 2012]; [Yi et al., 2018]). After being vortex mixed for 5 min, the mixture was incubated at 37°C for 30 min and returned to room temperature. Subsequently, the samples were processed as described above.
(§4) The remaining 21 rats of the three groups were treated with a single oral dose of AE-PM (50.4 g PM/kg). […] Blood was collected in heparinized tubes at 5, 15, 30, 45, 60, 120, 240, 360, 480, 720, 1,440, 2,880, and 4,320 min after administration. The blood samples were centrifuged at 5,000 rpm (4°C) for 7 min, and the supernatant plasma was harvested.
(§5) All data were presented as mean ± standard deviation (SD). A one-way analysis of variance (ANOVA) was used to compare the data between three groups. The differences were considered to be statistically significant when p < 0.05 and highly significant when the p-value was <0.01 or p < 0.001. Spearman rank correlation coefficient, calculated by bivariate correlation analysis was used to evaluate the correlation between AUC values and expression levels of metabolic enzyme and transporters. All statistical analyses were performed with the SPSS Statistics system (SPSS vision 21.0). Pharmacokinetic data analyses were performed using DAS 2.1.1 software (Mathematical Pharmacology Professional Committee of China, Shanghai, China).

in vivo = conditions: rat, po, 50 g/kg; for MRT inf: MRT (0-∞); for MRT inf / Tmax: oral AE-PM 50 g/kg, plasma, n = 6
Protocol: as §1, §2, §3, §4, §5

[2] = rat, in vivo, po
Protocol: as §1, §2, §3, §4, §5

[3] = CCl4 group rats, oral AE-PM 50 g/kg, n = 6
[4] = rat, po, 50 g/kg, ANIT group rats, oral AE-PM 50 g/kg, n = 6
[5] = rat, po, 50 g/kg, CCl4 group rats, oral AE-PM 50 g/kg, n = 6
[6] = rat, po, 50 g/kg, Normal group rats, oral AE-PM 50 g/kg, n = 6
[7] = rat, po, 50 g/kg, Tmax, ANIT group rats, oral AE-PM 50 g/kg, n = 6
[8] = rat, po, 50 g/kg, Tmax, CCl4 group rats, oral AE-PM 50 g/kg, n = 6
[9] = rat, po, 50 g/kg, Tmax, Normal group rats, oral AE-PM 50 g/kg, n = 6
[10] = rat, po, 50.4 g PM/kg, Tmax, different groups (normal, ANIT, CCl4), oral AE-PM

Row | Structure (SMILES) | AUC(0-inf) [1, 4] | AUC(0-inf) [1, 5] | AUC(0-inf) [1, 6] | CL/F [1, 4] | CL/F [1, 5] | CL/F [1, 6] | Cmax [1, 4] | Cmax [1, 5] | Cmax [1, 6] | MRT inf [1, 4] | MRT inf [1, 5] | MRT inf [1, 6] | Tmax [1, 7] | Tmax [1, 8] | Tmax [1, 9] | Vd/F [1, 4] | Vd/F [1, 5] | Vd/F [1, 6] | half-life [1, 4] | half-life [1, 6] | also measured
1 | O=C1c2cccc(O)c2C(=O)c2c(O)cc(CO)cc21 [Aloe-emodin, aloe-emodin] | 41700 ng·h/mL | 6620 ng·h/mL | 3560 ng·h/mL | 7.98 mL/min/kg | 50.4 mL/min/kg | 93.6 mL/min/kg | 1570 ng/mL | 2600 ng/mL | 1270 ng/mL | 198 ± 3.17 h | 6.47 ± 0.422 h | 14 ± 1.42 h | 0.25 ± 0.032 h | 0.25 ± 0.052 h | 0.167 ± 0.051 h | 96.7 ± 8.35 L/kg | 15 ± 1.2 L/kg | 28.7 ± 1.55 L/kg | 140 ± 8.29 h | 3.54 ± 0.185 h | t1/2z [1, 3]: 3.448 ± 0.177 h; Tmax [1, 10]: < 0.5 h
2 | Oc1cc(O)c2c(c1)O[C@H](c1ccc(O)c(O)c1)[C@@H](O)C2 [Catechin, catechin] | 11600 ng·h/mL | 1500 ng·h/mL | 12600 ng·h/mL | 28.8 mL/min/kg | 222 mL/min/kg | 26.4 mL/min/kg | 84.5 ± 8.85 ng/mL | 453 ± 8.94 ng/mL | 251 ± 11.8 ng/mL | 253 ± 3.75 h | 11.2 ± 1.23 h | 146 ± 11.3 h | 1 ± 0.742 h | 0.5 ± 0.0408 h | 0.25 ± 0.0234 h | 442 ± 16.9 L/kg | 72.2 ± 12.6 L/kg | 237 ± 18.3 L/kg | 177.3 ± 1.09 h | 104 ± 14.9 h | half-life [1, 5]: 3.76 ± 0.816 h; Conversion into phase II metabolites ([1]; oral AE-PM): partially converted
3 | OC[C@H]1O[C@@H](Oc2c(O)cc(O)cc2/C=C/c2ccc(O)cc2)[C@H](O)[C@@H](O)[C@@H]1O [TSG, 2,3,5,4'-tetrahydroxystilbene-2-O-β-D-glucoside] | 341000 ng·h/mL | 116000 ng·h/mL | 12900 ng·h/mL | 0.983 mL/min/kg | 2.87 mL/min/kg | 25.9 mL/min/kg | 99300 ng/mL | 50600 ng/mL | 15000 ng/mL | 6.03 ± 1.93 h | 3.4 ± 1.04 h | 4.54 ± 1.23 h | 0.5 ± 0.0278 h | 0.75 ± 0.136 h | 0.25 ± 0.0293 h | 0.221 ± 0.0206 L/kg | 0.698 ± 0.073 L/kg | 4.37 ± 0.711 L/kg | 2.61 ± 0.612 h | 1.95 ± 0.806 h | Increase of AUC (0-∞) compared with the normal group ([1]; ANIT model rats, oral AE-PM): 2,548.17%; Increase of Cmax compared with the normal group ([1]; ANIT model rats, oral AE-PM): 560.12%; Increase of AUC (0-∞) compared with the normal group ([1]; CCl4 model rats, oral AE-PM): 802.14%; Increase of Cmax compared with the normal group ([1]; CCl4 model rats, oral AE-PM): 236.59%; half-life [1, 5]: 2.81 ± 0.878 h; Conversion into phase II metabolites ([1]; oral AE-PM): partially converted
4 | O=C(O)c1cc(O)c(O)c(O)c1 [Gallic acid, gallic acid] |  |  |  |  |  |  |  |  |  |  |  |  |  |  |  |  |  |  |  |  | MRT inf (in vivo; ANIT group rats): 55.7 ± 4.22 h; MRT inf (in vivo; CCl4 group rats): 3.06 ± 0.12 h; MRT inf (in vivo; Normal group rats): 12.8 ± 1.02 h; Tmax (in vivo; ANIT group rats): 0.75 ± 0.0231 h; Tmax (in vivo; CCl4 group rats): 0.25 ± 0.0641 h; Tmax (in vivo; Normal group rats): 0.25 ± 0.0728 h; Vd/F (in vivo; Vz/F): 205 ± 2.2 L/kg
5 | Cc1cc(O)c2c(c1)C(=O)c1cc(O)cc(O)c1C2=O [Emodin, emodin] | 1500 ng·h/mL | 5970 ng·h/mL | 3400 ng·h/mL | 223 mL/min/kg | 55.9 mL/min/kg | 98.1 mL/min/kg | 607 ± 29.9 ng/mL | 6430 ng/mL | 4100 ng/mL | 22.8 ± 5.28 h | 1.23 ± 0.681 h | 6.09 ± 1.83 h |  |  | 0.167 ± 0.059 h | 75.5 ± 8.86 L/kg | 68.1 ± 6.03 L/kg | 31.3 ± 3.25 L/kg | 3.91 ± 0.821 h |  | Tmax [1, 3]: 0.25 ± 0.0659 h; t1/2z [1, 3]: 3.654 ± 0.267 h; t1/2z ([1]; Normal group rats, oral AE-PM 50 g/kg, n = 6): 3.681 ± 1.075 h; Tmax [1, 10]: < 0.5 h; Conversion into phase II metabolites ([1]; oral AE-PM): partially converted; Decrease of AUC (0-∞) compared with the normal group [2]: 55.98%; Decrease of Cmax compared with the normal group [2]: 85.18%; Increase of AUC (0-∞) compared with the normal group [2]: 75.69%; Increase of Cmax compared with the normal group [2]: 57.02%
6 | COc1cc(O)c2c(c1)C(=O)c1cc(C)cc(O[C@@H]3O[C@H](CO)[C@@H](O)[C@H](O)[C@H]3O)c1C2=O [P-glu, physcion-8-O-β-D-glucoside] | 7050 ng·h/mL | 1450 ng·h/mL | 2270 ng·h/mL | 47.3 mL/min/kg | 230 mL/min/kg | 147 mL/min/kg | 223 ± 13.2 ng/mL | 211 ± 3.04 ng/mL | 148 ± 8.95 ng/mL | 18.8 ± 3.36 h | 7.48 ± 1.42 h | 15.9 ± 2.36 h | 1 ± 0.232 h | 0.25 ± 0.0661 h | 0.75 ± 0.049 h | 13.2 ± 1.86 L/kg | 81.3 ± 5.01 L/kg | 143 ± 11.1 L/kg | 3.22 ± 0.473 h | 11.3 ± 1.85 h | half-life [1, 5]: 4.08 ± 0.453 h
7 | COc1cc(O)c2c(c1)C(=O)c1cc(C)cc(O)c1C2=O [Physcion, physcion] | 14000 ng·h/mL | 36000 ng·h/mL | 27800 ng·h/mL | 23.9 mL/min/kg | 9.27 mL/min/kg | 12 mL/min/kg | 1510 ng/mL | 5840 ng/mL | 2140 ng/mL | 37.6 ± 2.27 h | 10 ± 1.14 h | 26.7 ± 1.52 h | 0.75 ± 0.0238 h | 1 ± 0.0675 h | 0.5 ± 0.094 h | 59.8 ± 3.41 L/kg | 7.05 ± 1.11 L/kg | 17.6 ± 2.41 L/kg | 28.9 ± 1.5 h | 17 ± 1.87 h | Decrease of AUC (0-∞) compared with the normal group ([1]; ANIT model rats, oral AE-PM): 49.77%; Decrease of Cmax compared with the normal group ([1]; ANIT model rats, oral AE-PM): 29.48%; Increase of AUC (0-∞) compared with the normal group ([1]; CCl4 model rats, oral AE-PM): 29.24%; Increase of Cmax compared with the normal group ([1]; CCl4 model rats, oral AE-PM): 173.72%; Levels of glucuronidation and sulfation conjugates in plasma ([1]; oral AE-PM, sulfatase hydrolysis): too low to allow pharmacokinetic analysis; half-life [1, 5]: 8.78 ± 1.6 h
8 | Cc1cc(O[C@@H]2O[C@H](CO)[C@@H](O)[C@H](O)[C@H]2O)c2c(c1)C(=O)c1cc(O)cc(O)c1C2=O [E-glu, emodin-8-O-β-D-glucoside] | 1720 ± 170 ng·h/mL | 14200 ng·h/mL | 1880 ± 538 ng·h/mL | 193 mL/min/kg | 23.5 mL/min/kg | 177 mL/min/kg | 633 ± 50 ng/mL | 5920 ng/mL | 821 ± 85 ng/mL | 2.81 ± 0.872 h | 2.44 ± 1.17 h | 3.88 ± 1.52 h | 1 ± 0.248 h | 1 ± 0.289 h | 0.25 ± 0.0301 h | 78.3 ± 4.4 L/kg | 8.13 ± 1.75 L/kg | 60.2 ± 9.45 L/kg | 4.68 ± 1.1 h | 3.92 ± 0.219 h | Decrease of AUC (0-∞) compared with the normal group ([1]; ANIT model rats, oral AE-PM): 8.25%; Decrease of Cmax compared with the normal group ([1]; ANIT model rats, oral AE-PM): 22.98%; Increase of AUC (0-∞) compared with the normal group ([1]; CCl4 model rats, oral AE-PM): 655.90%; Increase of Cmax compared with the normal group ([1]; CCl4 model rats, oral AE-PM): 620.15%; half-life [1, 5]: 4 ± 1.4 h
